Experimental data: PubChem BioAssay (NCI)
Where “and” joins values, the source holds several entries; their conditions need not be identical. Equal values may be shown once.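 Dose response: 5 concentrations. Exposure: 48 h. Format: 96-well plates. Endpoint: linear interpolation; highest concentration if not reached. The concentration for 50% growth inhibition is given as GI50. At the TGI there is no net growth.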

Columns and labels:
Assay in all cases: NCI anticancer screen, dose series, 48 h
HT29 colon = tested on: HT29 colon
EKVX NSCLC = tested on: EKVX NSCLC
PC-3 prostate = tested on: PC-3 prostate
SF-539 CNS = tested on: SF-539 CNS
K-562 leukemia = tested on: K-562 leukemia
COLO 205 colon = tested on: COLO 205 colon
NCI-H460 lung = tested on: NCI-H460 lung
HL-60(TB) leukemia = tested on: HL-60(TB) leukemia
OVCAR-8 ovarian = tested on: OVCAR-8 ovarian
SR leukemia = tested on: SR leukemia

| Structure (SMILES) | GI50 (HT29 colon) | TGI (HT29 colon) | GI50 (EKVX NSCLC) | TGI (EKVX NSCLC) | GI50 (PC-3 prostate) | TGI (PC-3 prostate) [µM] | GI50 (SF-539 CNS) | TGI (SF-539 CNS) | GI50 (K-562 leukemia) | TGI (K-562 leukemia) [µM] | GI50 (COLO 205 colon) | TGI (COLO 205 colon) | GI50 (NCI-H460 lung) | TGI (NCI-H460 lung) | GI50 (HL-60(TB) leukemia) | TGI (HL-60(TB) leukemia) | GI50 (OVCAR-8 ovarian) | TGI (OVCAR-8 ovarian) [µM] | GI50 (SR leukemia) | TGI (SR leukemia) |
| --- | --- | --- | --- | --- | --- | --- | --- | --- | --- | --- | --- | --- | --- | --- | --- | --- | --- | --- | --- | --- |
| CCOC(=O)c1cc(C(=O)c2cc(OC)c(OC)c(OC)c2)n2ncccc12 | 0.245 µM | > 100 µM | 0.65 µM | > 100 µM | 0.289 µM | > 100 | 0.292 µM | 2.28 µM | 0.124 µM | > 100 | 0.23 µM | 1.33 µM | 0.335 µM | > 100 µM | 0.251 µM | 0.763 µM | 0.584 µM | > 100 | 0.126 µM | > 100 µM |
| COC(=O)c1n[nH]c(C)c1N=NN(C)CCC#N |  | 87.8 µM |  | 29.2 µM |  | 74.7 |  | 30.3 µM |  | 60 |  | 26.9 µM |  | 36.5 µM |  | 87.6 µM |  | 34.4 |  | 44.6 µM |
| CN(c1ncccc1CNc1nc(Nc2ccc3c(c2)CC(=O)N3)ncc1C(F)(F)F)S(C)(=O)=O | 1.75 µM and 2.33 µM | 4.79 µM and 8.54 µM | 1.84 µM and 2.64 µM | 8.23 µM and > 10 µM | 2.83 µM and 3 µM | > 35.9 | 1.96 µM and 2.35 µM | 5.18 µM and 6.93 µM | 2.97 µM and 3.45 µM | > 100 | 0.601 µM and 1.11 µM | 2.08 µM and 3.03 µM | 2.14 µM and 2.95 µM | 7.32 µM and > 10 µM | 2.02 µM and 1.38 µM | 5.72 µM and 5.51 µM | 2.41 µM and 3.38 µM | > 64.6 | 0.606 µM and 1.54 µM | 4.91 µM and 5.26 µM |
| CS(=O)(=O)Nc1cncc(-c2ccc3ncnc(Nc4ccc(F)c(Cl)c4)c3c2)c1 | 2.43 µM | 11.4 µM | 0.888 µM | 7.01 µM | 2.69 µM | 15 | 2.24 µM | 11.3 µM | 3.88 µM | 20.1 | 1.95 µM | 5.97 µM | 4.22 µM | 16 µM | 2.08 µM | 9.62 µM | 3.73 µM | 23.7 | 1.78 µM | 10.2 µM |
| O=c1[nH]c2ccccc2c2ccccc12 | > 100 µM | > 100 µM | 92.9 µM | > 100 µM | > 100 µM | > 100 | > 100 µM | > 100 µM | > 100 µM | > 100 | > 100 µM | > 100 µM | 70.1 µM | > 100 µM | > 100 µM | > 100 µM | > 100 µM | > 100 | 77.3 µM | > 100 µM |
| O=C1CSCc2sccc21 |  | > 100 µM |  | > 100 µM |  | > 100 |  | > 100 µM |  | > 100 |  | > 100 µM |  | > 100 µM |  | > 100 µM |  | > 100 |  | > 100 µM |
| CC(C)(CN1CCCCC1)C(=O)/C=C/c1ccc(/C=C/C(=O)C(C)(C)CN2CCCCC2)cc1 |  | 0.514 µM |  | 4.21 µM |  | 0.82 |  | 1.55 µM |  | 0.375 |  | 0.418 µM |  | 1.96 µM |  | 0.714 µM |  | 3.57 |  | 0.646 µM |
| C/C(=N\NC(=S)N1CCCCC1)c1ccccn1 | < 0.01 µM | 4.06 µM | < 0.0145 µM | 3.99 µM | < 0.01 µM | 12.6 | 0.257 µM | 6.87 µM | < 0.01 µM | 8.76 | < 0.01 µM | 0.041 µM | < 0.0151 µM | 1.5 µM | 0.0527 µM | 2.64 µM | < 0.01 µM | 2.42 | < 0.0157 µM | 10.7 µM |
| COc1ccc(C2CC(c3cccc(Nc4ccnc5cc(Cl)ccc45)c3)=NN2C=O)cc1 (centres undefined) | 0.349 µM | 1.54 µM | 1.19 µM | > 100 µM | 0.577 µM | > 100 | 0.785 µM | 8.42 µM | 0.33 µM | > 100 | 0.484 µM | 2.95 µM | 0.415 µM | > 100 µM | 0.257 µM | 0.774 µM | 1.12 µM | > 100 | 0.271 µM | 2.04 µM |
| O=S(=O)(NCCCNc1nccc(-c2c(-c3ccc(O)cc3)nc3sccn23)n1)c1ccc(F)cc1 | 1.52 µM | 17.2 µM | 2.91 µM | 9.02 µM | 3.11 µM | 29 | 2.04 µM | 13.9 µM | 1.67 µM | > 100 | 0.0527 µM | 2.19 µM | 2.37 µM | 7.18 µM | 2.61 µM | 5.61 µM | 1.57 µM | 13.3 | 2.07 µM | > 100 µM |
| Cc1cccc(N(C)C(=O)[C@@H]2[C@H](O)CCN2c2nc(C)cc(C(F)(F)F)c2C#N)c1 | 15.6 µM | 49.1 µM | 24.6 µM | > 100 µM | 15.4 µM | 67.2 | 15.9 µM | 32.2 µM | 0.747 µM | > 100 | 17.3 µM | 34 µM | 31.8 µM | > 100 µM | 3.56 µM | 17.4 µM | 28.1 µM | > 100 | 5.24 µM | 28.6 µM |
| Nc1nccc(-c2c(-c3ccc(F)cc3)ncn2C2CCNCC2)n1 | 1.68 µM and 1.28 µM | > 25 µM | > 25 µM and 5.01 µM | > 25 µM and 24.8 µM | 13.6 µM and 4.05 µM | > 25 | 23.5 µM and 8.37 µM | > 25 µM | 5.92 µM and 2.92 µM | > 25 | 0.623 µM and 1.01 µM | > 7.09 µM and 11.1 µM | 1.55 µM and 1.36 µM | > 25 µM | > 25 µM and 6.47 µM | > 25 µM | 5.88 µM and 1.43 µM | > 25 | 10.2 µM and 2.23 µM | > 25 µM |
| CCOC(=O)C1Cc2c(cc3c4c(cccc24)N(C(C)=O)C3)N(C)C1 (centres undefined) |  | > 100 µM |  | > 100 µM |  | > 100 |  | 10.1 µM |  | > 100 |  | > 100 µM |  | > 100 µM |  | > 100 µM |  | > 100 |  | > 100 µM |
| CCN(CCCN(C)C)Cc1cc(I)cc(C)c1O | 14.7 µM | 32.4 µM | 26.5 µM | > 100 µM | 21.5 µM | 65.8 | 14.8 µM | 29 µM | 6.95 µM | 23.3 | 18.9 µM | 36.8 µM | 16.4 µM | 38 µM | 20 µM | 41.5 µM | 34.2 µM | > 100 | 1.04 µM | 14.5 µM |
| NS(=O)(=O)c1ccc(Nc2cc(-c3cccc(O)c3)[nH]n2)cc1 | > 25 µM | > 25 µM | > 25 µM | > 25 µM | > 25 µM | > 25 | 20.5 µM | > 25 µM | > 25 µM | > 25 | > 25 µM | > 25 µM | > 25 µM | > 25 µM | > 25 µM | > 25 µM | > 22.6 µM | > 25 | 24.2 µM | > 25 µM |
| Fc1cccc(COc2ccc(Nc3ncnc4sc(-c5cccs5)cc34)cc2Cl)c1 | 6.93 µM | 17.9 µM | 4.74 µM | > 20.4 µM | > 10.7 µM | > 20.4 | 5.55 µM | 15.3 µM | > 25 µM | > 25 | 1.42 µM | 10.5 µM | 7.63 µM | > 17 µM | > 25 µM | > 25 µM | 5.5 µM | > 17.4 | > 16.4 µM | > 25 µM |
| COc1ccc(/C=C(/C#N)C(N)=O)c(OC)c1 |  | > 100 µM |  | > 100 µM |  | > 100 |  | > 100 µM |  | > 100 |  | > 100 µM |  | > 100 µM |  | > 100 µM |  | > 100 |  | > 100 µM |
| CC(C)(Br)C(=O)N1CCN(C(c2ccccc2)c2ccccc2)CC1 |  | > 100 µM |  | > 100 µM |  | > 100 |  | > 100 µM |  | > 100 |  | > 100 µM |  | > 100 µM |  | 41.9 µM |  | > 100 |  | > 100 µM |
| Cc1cc2nc3c4cc(O)ccc4n(CCN(C)C)c3nc2cc1C | 0.475 µM | 2.31 µM | 2.25 µM | 9.96 µM | 0.578 µM | 2.3 | 0.519 µM | 2.09 µM | 0.368 µM | > 100 | 0.698 µM | 3.99 µM | 0.468 µM | 1.99 µM | 0.364 µM | 1.76 µM | 0.494 µM | 4.73 | 0.309 µM |  |
